pIC50: −log10 of the molar value. *1 amine or outer side, *2 acyl side, *3 side chain or, on linkers, in order; H or OH if unused. Where a SMILES comes first, the peptide text is derived from it. Bridges are numbered along the chain shown (N, C = ends). [ ]: non-standard residue; d: D form. ξ: configuration not given here. X5 = O=C(O)CC[C@H](N[*:1])C(=O)C1C[C@H](O)C[C@H]1C(=O)[*:2]; Trp(1-CH2COOH) = N[C@@H](Cc1cn(CC(=O)O)c2ccccc12)C(=O)O; Phe(3,4,5-F3) = N[C@@H](Cc1cc(F)c(F)c(F)c1)C(=O)O; Phe(3,4-F2) = N[C@@H](Cc1ccc(F)c(F)c1)C(=O)O; NMePhe(4-F) = CN[C@@H](Cc1ccc(F)cc1)C(=O)O; Phe(4-CN) = N#Cc1ccc(C[C@H](N)C(=O)O)cc1; d(cisHyp) = O=C(O)[C@H]1C[C@@H](O)CN1; Hyp = O=C(O)[C@@H]1C[C@@H](O)CN1; NMeF = CN[C@@H](Cc1ccccc1)C(=O)O; dHyp = O=C(O)[C@H]1C[C@H](O)CN1; NMeNle = CCCC[C@H](NC)C(=O)O; dPip = O=C(O)[C@H]1CCCCN1; hSer = N[C@@H](CCO)C(=O)O; NMeA = CN[C@@H](C)C(=O)O; Orn = NCCC[C@H](N)C(=O)O; dNMeA = CN[C@H](C)C(=O)O; Dab = NCC[C@H](N)C(=O)O; Dap = NC[C@H](N)C(=O)O; ξC = NC(CS)C(=O)O; Sar = CNCC(=O)O

The target in the test is T1, Human PD-L1/PD-1 (Homo sapiens, UniProt Q9NZQ7).
T1 construct: TVMV protease cleavage site (C); made in house; host or cells: HEK293T cells
T1 sequence (Q9NZQ7 with tags, fused parts or gaps): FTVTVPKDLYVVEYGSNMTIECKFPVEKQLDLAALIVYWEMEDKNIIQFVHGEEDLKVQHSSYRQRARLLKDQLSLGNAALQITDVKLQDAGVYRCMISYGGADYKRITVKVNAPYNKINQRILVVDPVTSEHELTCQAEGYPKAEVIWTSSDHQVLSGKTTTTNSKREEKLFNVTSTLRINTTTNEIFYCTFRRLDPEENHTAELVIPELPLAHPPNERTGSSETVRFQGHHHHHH
Kind of test: HTRF Human PD-L1/PD-1 binding assay (PD-1-Ig/PD-L1-His). The conditions noted are these: PD-L1-His 10 nM, PD-1-Ig 20 nM; class symbol; read-out: HTRF Human PD-L1/PD-1 Binding Assay IC50 Range. In a few lines:
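HTRF read-out (665/620 nm ratio) after 30 min equilibration with Eu-cryptate anti-Ig mAb (1 nM) and APC anti-His mAb (20 nM). Peptides preincubated 15 min with PD-L1-His (10 nM), then PD-1-Ig (20 nM) added for 15 min.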
(In general: Time-resolved FRET reads energy transfer from a long-lived donor to a nearby acceptor.)

Take `CCCC[C@H]1C(=O)N(C)[C@@H](CCCC)C(=O)N[C@@H](CCCN)C(=O)N[C@H](C(=O)NCC(N)=O)CSCC(=O)N[C@@H](Cc2ccc(OC)cc2)C(=O)N(C)[C@@H](C)C(=O)N[C@@H](CC(=O)O)C(=O)N2CCC[C@H]2C(=O)N[C@@H](Cc2cnc[nH]2)C(=O)N[C@@H](CCCCN)C(=O)N2C[C@H](O)C[C@H]2C(=O)N[C@@H](Cc2c[nH]c3ccccc23)C(=O)N[C@@H](CCN)C(=O)N[C@@H](Cc2c[nH]c3ccccc23)C(=O)N1C` [Example 7094] ({CH2CO}-Y(Me)[NMeA]DPHK[Hyp]W[Dab]W[NMeNle][NMeNle][Orn]CG-NH2; thioether N-14): the pIC50 was 8.00 to 9.00. `CC(C)C[C@@H]1NC(=O)[C@H](Cc2ccc(O)cc2)NC(=O)[C@H](Cc2c[nH]c3ccccc23)NC(=O)[C@@H](C)N(C)C(=O)[C@H](Cc2ccc(O)cc2)NC(=O)[C@H](Cc2ccccc2)N(C)C(=O)[C@H](C(C)C)NC(=O)[C@H](CCC(=O)O)NC(=O)[C@@H](C)N(C)C(=O)[C@H](C)N(C)C(=O)[C@H](Cc2ccccc2)N(C)C(=O)[C@H](Cc2cc(F)c(F)c(F)c2)NC(=O)CSC[C@@H](C(=O)NCC(N)=O)NC1=O` [Example 9189] ({CH2CO}-[Phe(3,4,5-F3)][NMeF][NMeA][dNMeA]EV[NMeF]Y[dNMeA]WYLCG-NH2; thioether N-13): the pIC50 is 8.00 to 9.00. Regarding `CCCC[C@H]1C(=O)N2C[C@@H](O)C[C@@H]2C(=O)N[C@@H](CC(=O)O)C(=O)N[C@@H](C(C)C)C(=O)N(C)[C@@H](Cc2ccccc2)C(=O)N[C@@H](Cc2ccc(O)cc2)C(=O)N2C[C@@H](O)C[C@@H]2C(=O)N[C@@H](Cc2c[nH]c3ccccc23)C(=O)N[C@@H](Cc2ccc(O)cc2)C(=O)N[C@@H](CCCN)C(=O)N[C@H](C(=O)NCC(N)=O)CSCC(=O)N[C@@H](Cc2ccc(F)c(F)c2)C(=O)N(C)[C@@H](Cc2ccccc2)C(=O)N1C` [Example 9231] ({CH2CO}-[Phe(3,4-F2)][NMeF][NMeNle][dHyp]DV[NMeF]Y[dHyp]WY[Orn]CG-NH2; thioether N-13), the pIC50 is 8.00 to 9.00. The result for `CCCC[C@H]1C(=O)N(C)[C@@H](CCCC)C(=O)N[C@@H](CCCNC(=N)N)C(=O)N[C@H](C(=O)NCC(N)=O)CSCC(=O)N[C@@H](Cc2ccc(C#N)cc2)C(=O)N(C)[C@@H](C)C(=O)N[C@@H](CC(N)=O)C(=O)N2CCC[C@H]2C(=O)N[C@@H](Cc2cnc[nH]2)C(=O)N[C@@H](CCC(=O)O)C(=O)C2C[C@H](O)C[C@H]2C(=O)N[C@@H](Cc2c[nH]c3ccccc23)C(=O)N[C@@H](CCN)C(=O)N[C@@H](Cc2c[nH]c3ccccc23)C(=O)N1C` (stereo partly drawn) [Example 7077] ({CH2CO}-[Phe(4-CN)][NMeA]NPH[X5]W[Dab]W[NMeNle][NMeNle]RCG-NH2; thioether N-13) reads 8.00 to 9.00; that for `CCCC[C@H]1C(=O)N2C[C@H](O)C[C@@H]2C(=O)N[C@@H](CC(=O)O)C(=O)N[C@@H](C(C)C)C(=O)N(C)[C@@H](Cc2ccccc2)C(=O)N[C@@H](CC(N)=O)C(=O)N2C[C@H](O)C[C@@H]2C(=O)N[C@@H](Cc2c[nH]c3ccccc23)C(=O)N[C@@H](Cc2ccc(O)cc2)C(=O)N[C@@H](CC(C)C)C(=O)N[C@H](C(=O)NCC(N)=O)CSCC(=O)N[C@@H](Cc2ccc(F)c(F)c2)C(=O)N(C)[C@@H](Cc2ccccc2)C(=O)N1C` [Example 9292], 8.00 to 9.00; that for `CCCC[C@H]1C(=O)N(C)[C@@H](CCCC)C(=O)N[C@@H](CCC(=O)O)C(=O)N[C@H](C(=O)NCC(N)=O)CSCC(=O)N[C@@H](Cc2ccc(OC)cc2)C(=O)N(C)[C@@H](C)C(=O)N[C@@H](CCN)C(=O)N2CCC[C@H]2C(=O)N[C@@H](Cc2cnc[nH]2)C(=O)N[C@@H](CCCCN)C(=O)N2C[C@H](O)C[C@H]2C(=O)N[C@@H](Cc2c[nH]c3ccccc23)C(=O)N[C@@H](CCN)C(=O)N[C@@H](Cc2c[nH]c3ccccc23)C(=O)N1C` [Example 7120] ({CH2CO}-Y(Me)[NMeA][Dab]PHK[Hyp]W[Dab]W[NMeNle][NMeNle]ECG-NH2; thioether N-14), 8.00 to 9.00. `CCCC[C@H]1C(=O)N(C)[C@@H](CCCC)C(=O)N[C@@H](CCCN)C(=O)N[C@H](C(=O)NCC(N)=O)CSCC(=O)N[C@@H](Cc2ccc(OC)cc2)C(=O)N(C)[C@@H](C)C(=O)N[C@@H](CCN)C(=O)N2CCC[C@H]2C(=O)N[C@@H](Cc2cnc[nH]2)C(=O)N[C@@H](CCC(=O)O)C(=O)N2C[C@H](O)C[C@H]2C(=O)N[C@@H](Cc2c[nH]c3ccccc23)C(=O)N[C@@H](CCN)C(=O)N[C@@H](Cc2c[nH]c3ccccc23)C(=O)N1C` [Example 7090] ({CH2CO}-Y(Me)[NMeA][Dab]PHE[Hyp]W[Dab]W[NMeNle][NMeNle][Orn]CG-NH2; thioether N-14): the pIC50 is 8.00 to 9.00. In the case of `CCCC[C@H]1C(=O)N(C)[C@@H](CCCC)C(=O)N[C@@H](CN)C(=O)N[C@H](C(=O)NCC(N)=O)CSCC(=O)N[C@@H](Cc2ccc(O)cc2)C(=O)N(C)[C@@H](C)C(=O)N[C@@H](CC(N)=O)C(=O)N2CCC[C@H]2C(=O)N[C@@H](CN)C(=O)N[C@@H](CC(C)C)C(=O)N2C[C@H](O)C[C@H]2C(=O)N[C@@H](Cc2c[nH]c3ccccc23)C(=O)N[C@@H](CCN)C(=O)N[C@@H](Cc2cn(CC(=O)O)c3ccccc23)C(=O)N1C` [Example 6303] ({CH2CO}-Y[NMeA]NP[Dap]L[Hyp]W[Dab][Trp(1-CH2COOH)][NMeNle][NMeNle][Dap]CG-NH2; thioether N-14), the pIC50 was 8.00 to 9.00. As to `CCCC[C@H]1C(=O)N(C)[C@@H](CCCC)C(=O)N[C@@H](CCCCN)C(=O)N[C@H](C(=O)NCC(N)=O)CSCC(=O)N[C@@H](Cc2ccc(O)cc2)C(=O)N(C)[C@@H](C)C(=O)N[C@@H](CC(N)=O)C(=O)N2CCC[C@H]2C(=O)N[C@@H](Cc2cnc[nH]2)C(=O)N[C@@H](CCC(=O)O)C(=O)N2C[C@H](O)C[C@H]2C(=O)N[C@@H](Cc2c[nH]c3ccccc23)C(=O)N[C@@H](CO)C(=O)N[C@@H](Cc2cn(CC(=O)O)c3ccccc23)C(=O)N1C` [Example 6297] ({CH2CO}-Y[NMeA]NPHE[Hyp]WS[Trp(1-CH2COOH)][NMeNle][NMeNle]KCG-NH2; thioether N-14), the pIC50 was 8.00 to 9.00. With `CCCC[C@H]1C(=O)N2C[C@H](O)C[C@@H]2C(=O)N[C@@H](CC(=O)O)C(=O)N[C@@H](C(C)C)C(=O)N(C)[C@@H](Cc2ccccc2)C(=O)N[C@@H](CC(N)=O)C(=O)N2C[C@H](O)C[C@@H]2C(=O)N[C@@H](Cc2c[nH]c3ccccc23)C(=O)N[C@@H](Cc2ccc(O)cc2)C(=O)N[C@@H](CCN)C(=O)N[C@H](C(=O)NCC(N)=O)CSCC(=O)N[C@@H](Cc2cc(F)c(F)c(F)c2)C(=O)N(C)[C@@H](Cc2ccccc2)C(=O)N1C` [Example 9364] ({CH2CO}-[Phe(3,4,5-F3)][NMeF][NMeNle][d(cisHyp)]DV[NMeF]N[d(cisHyp)]WY[Dab]CG-NH2; thioether N-13), the pIC50 is 7.00 to 8.00. With `CCCC[C@H]1C(=O)N[C@@H](CC(N)=O)C(=O)N2CCC[C@H]2C(=O)N[C@@H](CO)C(=O)N[C@@H](CCO)C(=O)N2CCC[C@H]2C(=O)N[C@@H](Cc2c[nH]c3ccccc23)C(=O)N[C@@H](CCCN)C(=O)N[C@@H](Cc2c[nH]c3ccccc23)C(=O)N(C)[C@@H](C)C(=O)N(C)CC(=O)N[C@@H](CCCNC(=N)N)C(=O)NC(C(=O)NCC(N)=O)CSCC(=O)N[C@@H](Cc2ccc(O)cc2)C(=O)N1C` (stereo partly drawn) [Example 10204] ({CH2CO}-Y[NMeNle]NPS[hSer]PW[Orn]W[NMeA][Sar]R[ξC]G-NH2; thioether N-14), the pIC50 is 5.00 to 6.00. Regarding `CCCC[C@H]1C(=O)N2C[C@H](O)C[C@@H]2C(=O)N[C@@H](CC(=O)O)C(=O)N[C@@H](C(C)C)C(=O)N(C)[C@@H](Cc2ccccc2)C(=O)N[C@@H](CC(=O)O)C(=O)N2C[C@H](O)C[C@@H]2C(=O)N[C@@H](Cc2c[nH]c3ccccc23)C(=O)N[C@@H](Cc2ccc(O)cc2)C(=O)N[C@@H](CCO)C(=O)N[C@H](C(=O)NCC(N)=O)CSCC(=O)N[C@@H](Cc2cc(F)c(F)c(F)c2)C(=O)N(C)[C@@H](Cc2ccccc2)C(=O)N1C` [Example 10173] ({CH2CO}-[Phe(3,4,5-F3)][NMeF][NMeNle][d(cisHyp)]DV[NMeF]D[d(cisHyp)]WY[hSer]CG-NH2; thioether N-13), the pIC50 was 7.00 to 8.00. In the case of `CCCC[C@H]1C(=O)N2CCC[C@@H]2C(=O)N[C@@H](CC(=O)O)C(=O)N[C@@H](C(C)C)C(=O)N(C)[C@@H](Cc2ccccc2)C(=O)N[C@@H](CCC(=O)O)C(=O)N2CCCC[C@@H]2C(=O)N[C@@H](Cc2c[nH]c3ccccc23)C(=O)N[C@@H](Cc2ccc(O)cc2)C(=O)N[C@@H](CCC(N)=O)C(=O)N[C@H](C(=O)NCC(N)=O)CSCC(=O)N[C@@H](Cc2cc(F)c(F)c(F)c2)C(=O)N(C)[C@@H](Cc2ccc(F)cc2)C(=O)N1C` [Example 10563] ({CH2CO}-[Phe(3,4,5-F3)][NMePhe(4-F)][NMeNle][dP]DV[NMeF]E[dPip]WYQCG-NH2; thioether N-13) it was 8.00 to 9.00; in that of `CCCC[C@H]1C(=O)N(C)[C@@H](CCCC)C(=O)N[C@@H](CCC(=O)O)C(=O)N[C@H](C(=O)NCC(N)=O)CSCC(=O)N[C@@H](Cc2ccc(O)cc2)C(=O)N(C)[C@@H](C)C(=O)N[C@@H](CC(N)=O)C(=O)N2CCC[C@H]2C(=O)N[C@@H](Cc2cnc[nH]2)C(=O)N[C@@H](CCC(=O)O)C(=O)N2C[C@H](O)C[C@H]2C(=O)N[C@@H](Cc2c[nH]c3ccccc23)C(=O)N[C@@H](CCN)C(=O)N[C@@H](Cc2cn(CC(=O)O)c3ccccc23)C(=O)N1C` [Example 6134] ({CH2CO}-Y[NMeA]NPHE[Hyp]W[Dab][Trp(1-CH2COOH)][NMeNle][NMeNle]ECG-NH2; thioether N-14), 8.00 to 9.00. As to `CCCC[C@H]1C(=O)N(C)[C@@H](CCCC)C(=O)N[C@@H](CCCN)C(=O)N[C@H](C(=O)NCC(N)=O)CSCC(=O)N[C@@H](Cc2ccc(OC)cc2)C(=O)N(C)[C@@H](C)C(=O)N[C@@H](CCN)C(=O)N2CCC[C@H]2C(=O)N[C@@H](CN)C(=O)N[C@@H](CCC(=O)O)C(=O)N2C[C@H](O)C[C@H]2C(=O)N[C@@H](Cc2c[nH]c3ccccc23)C(=O)N[C@@H](CCN)C(=O)N[C@@H](Cc2c[nH]c3ccccc23)C(=O)N1C` [Example 7092] ({CH2CO}-Y(Me)[NMeA][Dab]P[Dap]E[Hyp]W[Dab]W[NMeNle][NMeNle][Orn]CG-NH2; thioether N-14), the pIC50 was 7.00 to 8.00.

These data come from US10538555B2, “Macrocyclic inhibitors of the PD-1/PD-L1 and CD80(B7-1)/PD-L1 protein/protein interactions” (BRISTOL-MYERS SQUIBB COMPANY, priority 2014, dated 2020).
